Measured values: patent US20240342235A1, “COMPOSITION FOR TREATING INFLAMMATORY BOWEL DISEASE, COMPRISING COMBINED EXTRACT OF ISATIDIS FOLIUM AND JUGLANS MANDSHURICA” (MTHERA PHARMA CO., LTD., priority 2021, published 2024)

Legend:
Format in all cases: in vivo, C57BL/6N male mice
[1] = test system: inflammatory bowel disease animal model (2.5% DSS); assay: Weight and length of spleen (spleen ratio) in DSS-treated mice (Example 3); conditions: 100 mg/kg oral, last day of administration
Description: 6-week-old C57BL/6N male mice were purchased and pre-bred for one week, and then they were randomly divided into a total of 5 groups of 8 mice per group, and an experiment was conducted as shown in Table 1 below.
2.5% dextran sulfate sodium (DSS) diluted in sterile water was administered in drinking water for a total of 8 days, and 5-aminosalicylic acid (5-ASA), which is a therapeutic agent for inflammatory bowel disease, or the combined extract of the present invention was orally administered for a total of 10 days from 2 days prior to the day of administration with DSS.
A representative symptom that can occur in relation to inflammatory bowel disease includes splenitis. As such, when the spleen becomes inflamed, the size of the spleen is increased by its nature (Nutrients 2019, 11 (11), 2776), and in fact, it is known that the spleen becomes enlarged in the model of IBD induced after DSS treatment (Biol. Pharm. Bull. 43, 450-457 (2020)). Therefore, in order to evaluate the level of inflammation in the spleen of mice according to the administration of the combined extract of the present invention, the mouse of Example 1 was sacrificed on the last day of each administration, and then the weight and length of the spleen of each group compared to those of the negative control group were measured, and the spleen ratio is shown.

[2] = test system: inflammatory bowel disease animal model (2.5% DSS); assay: Body weight change in DSS-treated mice (Example 1); conditions: 100 mg/kg oral, 2.5% DSS in drinking water, 7 days; body weight before DSS = 100%; negative control 89.31±2.75%, normal 105.64±0.54%
Description: 6-week-old C57BL/6N male mice were purchased and pre-bred for one week, and then they were randomly divided into a total of 5 groups of 8 mice per group, and an experiment was conducted as shown in Table 1 below. 2.5% dextran sulfate sodium (DSS) diluted in sterile water was administered in drinking water for a total of 8 days, and 5-aminosalicylic acid (5-ASA), which is a therapeutic agent for inflammatory bowel disease, or the combined extract of the present invention was orally administered for a total of 10 days from 2 days prior to the day of administration with DSS. [table] Body weight loss is a representative symptom of inflammatory bowel disease (Scientific Reports volume 10, Article number: 3829 (2020)). The body weight of the mouse was measured once a day at the same time (10 am) using an electronic scale. The rate of change in body weight of each group was obtained by summing the body weight of 8 mice per group and then dividing by 8. The average body weight immediately before the start of administration of 2.5% DSS in drinking water was set as 100%, and the average body weight of each group was calculated every day to measure the rate of change in body weight. Significance was verified by performing a Student's T test for each group between the negative control group to which 2.5% DSS was administered in drinking water and the experimental group.

[3] = test system: inflammatory bowel disease-induced mouse model (2.5% DSS); assay: Disease activity index (DAI) evaluation II, combined vs single extracts (Example 5); conditions: 100 mg/kg oral, 2.5% DSS for 5 days, 5 days after administration
Description: In order to evaluate whether the combined extract has a synergistic effect compared to that of individual use of an extract of […] folium and an extract of Juglans mandshurica fruits, 6-week-old C57BL/6N male mice were purchased and pre-bred for one week, and then they were randomly divided into a total of 6 groups of 7 mice per group, and an experiment was conducted as shown in Table 3 below. [table] 2.5% dextran sulfate sodium (DSS) diluted in sterile water was administered in drinking water for a total of 5 days, and 5-aminosalicylic acid (5-ASA), which is a therapeutic agent for inflammatory bowel disease, an extract of […] folium alone, an extract of Juglans mandshurica fruits alone, or the combined extract of the present invention was orally administered for a total of 7 days from 2 days prior to the day of administration with DSS. In addition, the disease activity index was measured in the same manner as the method used in Table 2 above, and the results 5 days after administration are shown in FIG. 5.

[4] = test system: inflammatory bowel disease animal model (2.5% DSS); assay: Length of large intestine in DSS-treated mice (Example 2); conditions: 100 mg/kg oral, last day of administration, negative control 5.44±0.12 cm, normal 7.48±0.30 cm
Description: 6-week-old C57BL/6N male mice were purchased and pre-bred for one week, and then they were randomly divided into a total of 5 groups of 8 mice per group, and an experiment was conducted as shown in Table 1 below. 2.5% dextran sulfate sodium (DSS) diluted in sterile water was administered in drinking water for a total of 8 days, and 5-aminosalicylic acid (5-ASA), which is a therapeutic agent for inflammatory bowel disease, or the combined extract of the present invention was orally administered for a total of 10 days from 2 days prior to the day of administration with DSS. It is known that there is a sufficient correlation between the shortened large intestine and histological changes, and the length of the large intestine is commonly used as a morphological parameter of the degree of inflammation. Therefore, in order to evaluate the length of the large intestine of the mouse according to the administration of the combined extract of the present invention, the mouse of Example 1 was sacrificed on the last day of each administration, and then the length of the large intestine was measured, and the average length is shown in FIG. 2.

[5] = test system: myeloperoxidase (MPO); assay: Myeloperoxidase (MPO) activity in large intestine tissue, Mouse MPO ELISA kit (Example 6); conditions: 100 mg/kg oral for 7 days, 2.5% DSS for 5 days
Description: MPO is an enzyme mainly found in neutrophils, and the activity of MPO in tissues is an indicator of neutrophil infiltration, so it is an indicator of inflammatory response and correlates with the level of intestinal damage caused by inflammatory colitis. Therefore, in order to measure the activity of MPO according to the administration of the combined extract of the present invention, an experiment was conducted as shown in Table 3 of Example 5 above.
2.5% dextran sulfate sodium (DSS) diluted in sterile water was administered in drinking water for a total of 5 days, and 5-aminosalicylic acid (5-ASA), which is a therapeutic agent for inflammatory bowel disease, an extract of Isatidis folium alone, an extract of Juglans mandshurica fruits alone, or the combined extract of the present invention was orally administered for a total of 7 days from 2 days prior to the day of administration with DSS. In order to measure the activity of MPO, the Mouse MPO ELISA kit (HK210-02, Hycult biotechnology) was used. […] The homogenized sample was centrifuged at 1500×g for 15 minutes to obtain a supernatant, and then the activity of MPO was measured using the supernatant.

## Nc1ccc(O)c(C(=O)O)c1 [5-ASA, 5-aminosalicylic acid]
[1]
  weight and length of the spleen compared to negative control group: decreased
[2]
  rate of change in body weight: 91.38±2.01%
[3]
  disease activity index compared to negative control group: decreased
[4]
  length of the large intestine: 5.28±0.08 cm
[5]
  decrease of the activity of MPO compared to negative control group: 9.6%
